Data as given in patent publication US12391825B2, “Thermoplastic polymer composition for micro 3D printing and uses thereof” (priority 2020, dated 2025).

Tested on: cardiac tissues
Conditions: compared with cardiac tissue without compound (baseline)
Protocol: Human iPSC cardiomyocytes (CMs) were differentiated from hiPSC line BJ1D by using monolayer differentiation protocols (Lian, et al. 2013; Yang, et al. 2008). The disassociation of cardiomyocytes into single cells was performed at day 21 of stem cell differentiation, using previous methods (Yang, et al. 2008). The disassociated cells and cardiac fibroblast (Lonza, NHCF-V) were mixed to reach a cell number ratio of 10:1. The resultant cells were remixed in a collagen hydrogel at a cell number of 5.5×10^7 cells/mL. […]
Cardiac cultured in a multiwell plate was placed in a chamber (37° C., 5% CO2) of fluorescent microscope (Olympus Corporation). ⅓rd of the media was extracted from one well of the multiwell-plate device. […] After 10-15 min, videos in the green and red channel were recorded. The force and Ca^2+ transients were measured under electrical stimulation at 1 Hz. […] Ca^2+ transients were recorded under fluorescent microscope using a green-light channel (λex490 nm/λem525 nm). The ratio of peak fluorescence to baseline fluorescence intensity was measured the relative Ca^2+ change in the tissues by Image J software (NIH) as described previously (Zhao, et al. 2019). […]
With built-in sensors and electrodes, the contractile force of tissues can be measured in situ. […]

CCN(CC)CC(=O)Nc1c(C)cccc1C [lidocaine]
electrical excitability of a cardiac tissue: inhibited
